Where two headings read alike, the source gives them in different places.
Assays:
[1] = cited from earlier work; for adverse effects stated in the background text: no dose given
anesthetized rats = assay: Cystometries (isovolumetric bladder contractions) in anesthetized rats; assay type: in vivo
Method: Effect of diazepam administered intravenously and intravaginally on cystometries in anesthetized rats.
Methods: Female rats were anesthetized with urethane (1.3 g/kg intraperitoneally) given as a divided dose of 80% initially and 20% 15 minutes later. Body temperature was maintained at 37±2° C. throughout the experiment. A catheter was inserted into the bladder through the urethra. Then, the urethra was ligated at the level of the urinary meatus. After an abdominal incision, the ureters were also ligated. The jugular vein was catheterized to allow administration of test compounds. The bladder catheter was connected via a T-tube to a strain gauge to measure intravesicular pressure. Isovolumetric bladder contractions were induced by stepwise injections of physiological saline at room temperature (100 μl every 5 min) until stable rhythmic bladder contractions occurred. After stabilization and a control period of at least 30 min, characterized by stable and reproducible bladder contractions (used as basal values), test substance or vehicle was administered i.v. (as a bolus under a volume of 200 μl) or i.vag. (under a volume of 100 μl using a syringe). The drug effects were evaluated for 1 hour following the end of administration. Each animal received one dose of one test substance.

overactive bladder (OAB) = assay: Case reports of subjects with OAB treated with local diazepam; assay type: in vivo, human
Method: A person had been suffering from symptoms consistent with OAB for several months. Following a confirmatory diagnosis of OAB, the subject was instructed to use vaginal suppositories containing 20 mg of diazepam in a glycerine base three times a day. […] The subject continues to do well on a maintenance dose of 20 mg once or twice a day.
A person had been suffering from symptoms consistent with OAB for several months. A diagnosis of OAB was confirmed by an urologist. A nurse then administered intraurethrally to the subject 2 ml of a gel formulation containing 10 mg/ml of diazepam in 2% methylcellulose, providing a total dose of 20 mg of diazepam. […] This subject is able to treat themself at home using the same type of formulation and the same route of administration up to 3 times per day as needed.
His symptoms were not relieved with high doses of oral diazepam but were well-controlled by intraurethral instillations of 2 ml of diazepam in a gel formulation containing 10 mg/ml of diazepam in hydroethylcellulose, providing a total of 20 mg of diazepam administered at bedtime.
A person with advanced dementia suffered from OAB symptoms including nocturia and urge incontinence. Despite the use of incontinence pads, the subject would frequently arise throughout the night without requesting assistance to go the bathroom. This led to numerous falls.

M-1 receptors = biological target: T1, M-1 receptors (Homo sapiens, UniProt P11229); conditions: cited from earlier work
T1 sequence (P11229 1-460): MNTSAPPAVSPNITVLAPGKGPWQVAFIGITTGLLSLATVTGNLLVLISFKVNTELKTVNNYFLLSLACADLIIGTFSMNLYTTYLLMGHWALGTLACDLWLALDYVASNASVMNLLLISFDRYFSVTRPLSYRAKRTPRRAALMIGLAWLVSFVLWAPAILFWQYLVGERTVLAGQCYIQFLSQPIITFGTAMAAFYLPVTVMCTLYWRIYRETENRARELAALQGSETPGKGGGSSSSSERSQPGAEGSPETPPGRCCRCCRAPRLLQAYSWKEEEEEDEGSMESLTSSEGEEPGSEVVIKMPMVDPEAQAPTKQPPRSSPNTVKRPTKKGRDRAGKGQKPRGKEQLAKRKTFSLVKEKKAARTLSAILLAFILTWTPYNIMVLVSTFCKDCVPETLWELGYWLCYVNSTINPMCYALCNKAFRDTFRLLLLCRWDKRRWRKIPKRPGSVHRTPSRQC

[2] = in vivo; cited from earlier work
[3] = intravaginal, vs basal values, through 30 minutes post administration
[4] = Example 6, intraurethral 1 ml gel 20 mg/ml in 3% hydroxyethylcellulose three times per day

## CC(C)C(=O)Oc1ccc(CO)cc1[C@H](CCN(C(C)C)C(C)C)c1ccccc1 [fesoterodine]
[1]; 4 mg or 8 mg QD, constipation
  Adverse Events: constipation
[1]; 4 mg or 8 mg QD, dry mouth
  Adverse Events: dry mouth
[1]; 4 mg or 8 mg QD, urinary tract infection
  Adverse Events: urinary tract infection
[1]
  adverse effects stated in the background text: associated with constipation, dry mouth and sometimes urinary tract infection

## CN1C(=O)CN=C(c2ccccc2)c2cc(Cl)ccc21 [diazepam, 7-chloro-1,3-dihydro-1-methyl-5-phenyl-2H-1,4-benzodiazepin-2-one]
Anesthetized rats; intravaginal vs intravenous administration
  reductions in micturition frequency and amplitude, intravaginal compared with intravenous: comparable to those achieved by intraveneous administration
Anesthetized rats; [3]
  micturition amplitude (threshold for voiding): significant reductions
  micturition frequency: significant reductions
Overactive bladder (OAB); Example 3, person, vaginal suppositories 20 mg in glycerine base three times a day
  symptoms of urgency, frequency and incontinence: greatly reduced
Overactive bladder (OAB); Example 3, vaginal suppositories 20 mg in glycerine base three times a day
  cognitive impairment: No cognitive impairment was observed or reported
Overactive bladder (OAB); Example 4, intraurethral 2 ml gel 10 mg/ml in 2% methylcellulose (20 mg)
  cognitive impairment: without causing any observable cognitive impairment
Overactive bladder (OAB); Example 4, person, intraurethral 2 ml gel 10 mg/ml in 2% methylcellulose (20 mg)
  OAB symptoms: reduced OAB symptoms significantly
Overactive bladder (OAB); Example 5, intraurethral 2 ml gel 10 mg/ml (20 mg) at bedtime
  adverse effects: did not suffer any adverse effects
Overactive bladder (OAB); Example 5, intraurethral 2 ml gel 10 mg/ml in hydroethylcellulose (20 mg) at bedtime
  symptoms (nocturia, nighttime urinary incontinence): well-controlled
Overactive bladder (OAB); Example 5, person, high doses of oral diazepam
  symptoms (nocturia, nighttime urinary incontinence): not relieved
Overactive bladder (OAB); [4]
  adverse effects: no apparent adverse effects
  cognitive impairment: without causing cognitive impairment
  daytime urgency: reduced daytime urgency
  nighttime falls: near-absence of nighttime falls
  nocturia (sleep through the night): able to sleep in bed throughout the night without arising to urinate
Overactive bladder (OAB); Example 6, person, oral antimuscarinic and oral diazepam
  cognitive impairments: led to cognitive impairments which increased the number of falls from bed

## CCN(CC)CC#CCOC(=O)C(O)(c1ccccc1)C1CCCCC1 (stereo not drawn) [oxybutynin chloride]
[1]; 3.9 mg transdermal per day, dry mouth
  Adverse Events: dry mouth
[1]; 3.9 mg transdermal per day, erythema
  Adverse Events: erythema
[1]; 3.9 mg transdermal per day, pruritis
  Adverse Events: pruritis
[1]
  adverse effects stated in the background text: highly associated with adverse cognitive effects and effects on sleep architecture and quality

## NC(=O)C(c1ccccc1)(c1ccccc1)[C@@H]1CCN(CCc2ccc3c(c2)CCO3)C1 [darifenacin]
M-1 receptors
  affinity for M-1 receptors: reduced affinity for M-1 receptors
[1]; 7.5 mg per day, constipation
  Adverse Events: constipation
[1]; 7.5 mg per day, dry mouth
  Adverse Events: dry mouth
[1]; 15 mg per day, constipation
  Adverse Events: constipation
[1]; 15 mg per day, dry mouth
  Adverse Events: dry mouth
[1]; 15 mg per day, dyspepsia
  Adverse Events: dyspepsia

## O=C(O[C@H]1C[C@H]2CC[C@@H](C1)[N+]21CCCC1)C(O)(c1ccccc1)c1ccccc1 [trospium chloride]
[1]; 20 mg × 2 per day, constipation
  Adverse Events: constipation
[1]; 20 mg × 2 per day, dry mouth
  Adverse Events: dry mouth
[2]
  fraction excreted completely active: 60%

Reference: patent US20100273783A1, “Compositions and Methods for Treating and Preventing Overactive Bladder and Conditions Associated Therewith” (OPTMED, INC., priority 2009, published 2010)
